“And” between values parts separate entries of the source, which are not always exact repeats. Equal values may be shown once. Read-outs that look alike come from different tables or passages of the source.
How the values were obtained:
[1] = type: in vivo, ferret (Mustela putorius furo); set-up: Temperature, Mean Diff. (Vehicle - treated): unit not given here; settings: for Bodyweight, Mean 2 (treated group) / Bodyweight, Mean Diff. (Vehicle vs. treated): Fig 3e; for Bodyweight, Mean 2 (treated group) / Bodyweight, Mean Diff. (Vehicle vs. treated) / Temperature, Mean 2 (treated group) / Temperature, Mean Diff. (Vehicle vs. treated): 5 mg/kg, b.i.d.; for Temperature, Mean 2 (treated group) / Temperature, Mean Diff. (Vehicle vs. treated): Fig 3d; for Bodyweight, Mean 2 (treated group mean) / Bodyweight, Mean Diff. (Vehicle - treated): Fig 2e; for Bodyweight, Mean 2 (treated group mean) / Bodyweight, Mean Diff. (Vehicle - treated) / Temperature, Mean 2 (treated group mean) / Temperature, Mean Diff. (Vehicle - treated): 20 mg kg-1 b.i.d.; for Bodyweight, Mean 2 (treated group mean) / Temperature, Mean 2 (treated group mean): N 4; for Bodyweight, Mean Diff. (Vehicle - treated) / Temperature, Mean Diff. (Vehicle - treated): Šídák's multiple comparisons test; for Temperature, Mean 2 (treated group mean) / Temperature, Mean Diff. (Vehicle - treated): Fig 2d
SARS-CoV-2 WA1/2020 [2] = type: in vivo, ferret (Mustela putorius furo); settings: for Transform of Nasal lavage titer, Mean 2 (treated group) / Transform of Nasal lavage titer, Mean Diff. (Vehicle vs. treated): Fig 3b; for Transform of Nasal Lavage RNA copies, Mean 2 (treated group) / Transform of Nasal Lavage RNA copies, Mean Diff. (Vehicle vs. treated): Fig 3f, 5mg/kg b.i.d.
SARS-CoV-2 WA1/2020 [3] = type: in vivo, ferret (Mustela putorius furo); settings: Fig 2g, 20 mg kg-1 b.i.d.; for Transform of Nasal lavage RNA copies/uL, Mean 2 (treated group mean): N 4; for Transform of Nasal lavage RNA copies/uL, Mean Diff. (Vehicle - treated): Šídák's multiple comparisons test
[4] = Single-dose plasma pharmacokinetics in ferrets; settings: ferret plasma, analyte 441524 after IV '524, 20 mg/kg, 20 mg/kg; for AUC(0-t) / clearance / Cmax: plasma, iv; for AUC(0-t): AUClast; for clearance: Cl_obs

## CC(C)C(=O)OC[C@H]1O[C@@H](n2ccc(NO)nc2=O)[C@H](O)[C@@H]1O [EIDD-2801/molnupiravir, reference compound]
[1]; Row 1 (time)
  Bodyweight, Mean 2 (treated group): 100
  Bodyweight, Mean Diff. (Vehicle vs. treated): 0
  Temperature, Mean 2 (treated group): 38.55
  Temperature, Mean Diff. (Vehicle vs. treated): 0.6
[1]; Row 2 (time)
  Bodyweight, Mean 2 (treated group): 104
  Bodyweight, Mean Diff. (Vehicle vs. treated): -3.257
  Temperature, Mean 2 (treated group): 38.7
  Temperature, Mean Diff. (Vehicle vs. treated): -0.025
[1]; Row 3 (time)
  Bodyweight, Mean 2 (treated group): 103.5
  Bodyweight, Mean Diff. (Vehicle vs. treated): -2.179
  Temperature, Mean 2 (treated group): 38.58
  Temperature, Mean Diff. (Vehicle vs. treated): 0.1
[1]; Row 4 (time)
  Bodyweight, Mean 2 (treated group): 103.9
  Bodyweight, Mean Diff. (Vehicle vs. treated): -1.728
  Temperature, Mean 2 (treated group): 38.6
  Temperature, Mean Diff. (Vehicle vs. treated): 0.05
[1]; Row 5 (time)
  Bodyweight, Mean 2 (treated group): 105.6
  Bodyweight, Mean Diff. (Vehicle vs. treated): -3.149
  Temperature, Mean 2 (treated group): 38.53
  Temperature, Mean Diff. (Vehicle vs. treated): 0.05
[1]; in vivo
  Body temperature (Fig 3D): 39.3 and 38.7 and 38.2 and 38.6 and 38.9 and 38.4 and 37.8
SARS-CoV-2 WA1/2020 [2]; Day 0, 5 mg/kg, b.i.d.
  Transform of Nasal lavage titer, Mean 2 (treated group): 0.699
  Transform of Nasal lavage titer, Mean Diff. (Vehicle vs. treated): 0
SARS-CoV-2 WA1/2020 [2]; Day 0.5, 5 mg/kg, b.i.d.
  Transform of Nasal lavage titer, Mean 2 (treated group): 2.389
  Transform of Nasal lavage titer, Mean Diff. (Vehicle vs. treated): 0.206
SARS-CoV-2 WA1/2020 [2]; Day 1, 5 mg/kg, b.i.d.
  Transform of Nasal lavage titer, Mean 2 (treated group): 2.25
  Transform of Nasal lavage titer, Mean Diff. (Vehicle vs. treated): 1.457
SARS-CoV-2 WA1/2020 [2]; Day 1.5, 5 mg/kg, b.i.d.
  Transform of Nasal lavage titer, Mean 2 (treated group): 2.025
  Transform of Nasal lavage titer, Mean Diff. (Vehicle vs. treated): 2.631
SARS-CoV-2 WA1/2020 [2]; Day 2, 5 mg/kg, b.i.d.
  Transform of Nasal lavage titer, Mean 2 (treated group): 1.683
  Transform of Nasal lavage titer, Mean Diff. (Vehicle vs. treated): 2.587
SARS-CoV-2 WA1/2020 [2]; Day 2.5, 5 mg/kg, b.i.d.
  Transform of Nasal lavage titer, Mean 2 (treated group): 2.004
  Transform of Nasal lavage titer, Mean Diff. (Vehicle vs. treated): 2.196
SARS-CoV-2 WA1/2020 [2]; Day 3, 5 mg/kg, b.i.d.
  Transform of Nasal lavage titer, Mean 2 (treated group): 1.551
  Transform of Nasal lavage titer, Mean Diff. (Vehicle vs. treated): 2.25
SARS-CoV-2 WA1/2020 [2]; Day 3.5, 5 mg/kg, b.i.d.
  Transform of Nasal lavage titer, Mean 2 (treated group): 1.802
  Transform of Nasal lavage titer, Mean Diff. (Vehicle vs. treated): 2.074
SARS-CoV-2 WA1/2020 [2]; Day 4, 5 mg/kg, b.i.d.
  Transform of Nasal lavage titer, Mean 2 (treated group): 1.119
  Transform of Nasal lavage titer, Mean Diff. (Vehicle vs. treated): 2.869
SARS-CoV-2 WA1/2020 [2]; Fig 3c, 5 mg/kg, b.i.d.
  Transform of Nasal Turbinate titer, Mean 2 (treated group): 2.801
  Transform of Nasal Turbinate titer, Mean Diff. (Vehicle vs. treated): 3.122
SARS-CoV-2 WA1/2020 [2]; Row 1 (time)
  Transform of Nasal Lavage RNA copies, Mean 2 (treated group): 0
  Transform of Nasal Lavage RNA copies, Mean Diff. (Vehicle vs. treated): 0
SARS-CoV-2 WA1/2020 [2]; Row 2 (time)
  Transform of Nasal Lavage RNA copies, Mean 2 (treated group): 4.936
  Transform of Nasal Lavage RNA copies, Mean Diff. (Vehicle vs. treated): 0.6755
SARS-CoV-2 WA1/2020 [2]; Row 3 (time)
  Transform of Nasal Lavage RNA copies, Mean 2 (treated group): 4.762
  Transform of Nasal Lavage RNA copies, Mean Diff. (Vehicle vs. treated): 1.379
SARS-CoV-2 WA1/2020 [2]; Row 4 (time)
  Transform of Nasal Lavage RNA copies, Mean 2 (treated group): 4.913
  Transform of Nasal Lavage RNA copies, Mean Diff. (Vehicle vs. treated): 0.7124
SARS-CoV-2 WA1/2020 [2]; Row 5 (time)
  Transform of Nasal Lavage RNA copies, Mean 2 (treated group): 4.419
  Transform of Nasal Lavage RNA copies, Mean Diff. (Vehicle vs. treated): 1.314
SARS-CoV-2 WA1/2020 [2]; in vivo
  viral RNA copies in nasal lavages and turbinates vs vehicle: statistically significant mean reduction
  virus burden in the turbinates: approached the limit of detection
  virus shedding in nasal lavages: near-detection level

## CC(C)C(=O)OCC1OC(C#N)(c2ccc3c(N)ncnn23)C(OC(=O)C(C)C)C1OC(=O)C(C)C (stereo not shown) [GS-62-1763]
[1]; Row 1 (time)
  Bodyweight, Mean 2 (treated group mean): 100
  Bodyweight, Mean Diff. (Vehicle - treated): 0
  Temperature, Mean 2 (treated group mean): 38.58
  Temperature, Mean Diff. (Vehicle - treated): -0.25
[1]; Row 2 (time)
  Bodyweight, Mean 2 (treated group mean): 102.1
  Bodyweight, Mean Diff. (Vehicle - treated): -0.8462
  Temperature, Mean 2 (treated group mean): 38.45
  Temperature, Mean Diff. (Vehicle - treated): 0.275
[1]; Row 3 (time)
  Bodyweight, Mean 2 (treated group mean): 104.7
  Bodyweight, Mean Diff. (Vehicle - treated): -2.64
  Temperature, Mean 2 (treated group mean): 38.68
  Temperature, Mean Diff. (Vehicle - treated): 0.675
[1]; Row 4 (time)
  Bodyweight, Mean 2 (treated group mean): 105.7
  Bodyweight, Mean Diff. (Vehicle - treated): -3.357
  Temperature, Mean 2 (treated group mean): 38.4
  Temperature, Mean Diff. (Vehicle - treated): 0.85
[1]; Row 5 (time)
  Bodyweight, Mean 2 (treated group mean): 105.5
  Bodyweight, Mean Diff. (Vehicle - treated): -2.899
  Temperature, Mean 2 (treated group mean): 38.33
  Temperature, Mean Diff. (Vehicle - treated): 0.6
SARS-CoV-2 WA1/2020 [3]; Row 1 (time)
  Transform of Nasal lavage RNA copies/uL, Mean 2 (treated group mean): 0
  Transform of Nasal lavage RNA copies/uL, Mean Diff. (Vehicle - treated): 0
SARS-CoV-2 WA1/2020 [3]; Row 2 (time)
  Transform of Nasal lavage RNA copies/uL, Mean 2 (treated group mean): 3.525
  Transform of Nasal lavage RNA copies/uL, Mean Diff. (Vehicle - treated): 1.479
SARS-CoV-2 WA1/2020 [3]; Row 3 (time)
  Transform of Nasal lavage RNA copies/uL, Mean 2 (treated group mean): 3.436
  Transform of Nasal lavage RNA copies/uL, Mean Diff. (Vehicle - treated): 2.713
SARS-CoV-2 WA1/2020 [3]; Row 4 (time)
  Transform of Nasal lavage RNA copies/uL, Mean 2 (treated group mean): 3.353
  Transform of Nasal lavage RNA copies/uL, Mean Diff. (Vehicle - treated): 2.648
SARS-CoV-2 WA1/2020 [3]; Row 5 (time)
  Transform of Nasal lavage RNA copies/uL, Mean 2 (treated group mean): 3.502
  Transform of Nasal lavage RNA copies/uL, Mean Diff. (Vehicle - treated): 2.475

## N#CC1(c2ccc3c(N)ncnn23)OC(CO)C(O)C1O (stereo not shown) [compound 441524]
[4]; individual animals F0201-F0203
  Cl_obs: 12 mL/min/kg and 17.3 mL/min/kg
  AUC(0-t): 82 µM·h
  clearance: 13.9 mL/min/kg
  Cmax: 62.4 µM
[4]; Mean
  AUC(0-t): 81.1 µM·h
  clearance: 14.4 mL/min/kg
  Cmax: 54.2 µM

Reference: publication PMC8571282 (Nature Communications, 2021)
